# Measured values reported in patent US11142522B2, “Compounds, compositions and methods for cancer treatment” (THE BROAD INSTITUTE, INC., priority 2017, dated 2021).
# Where “and” joins values, the source holds several entries; their conditions need not be identical. Equal values may be shown once. Marks after values point to notes of the source that are not given here.
# Key:
# [1] = In vivo pharmacokinetics in dogs; details: female, Beagle, dog, plasma, iv, after i.v., read-out: clearance in dogs (CLp) (converted)
# Procedure: For in vivo pharmacokinetic experiments test compounds were administered to non-rodents (e.g. female Beagle dogs) intravenously at doses of 0.1 to 1 mg/kg and intragastral at doses of 0.3 to 3 mg/kg formulated as solutions using solubilizers such as PEG400 in well-tolerated amounts and are usually given as short term infusion (15 min).
# Blood samples were taken e.g. at 2 min, 8 min, 15 min, 30 min, 45 min, 1 h, 2 h, 4 h, 6 h, 8 h and 24 h after dosing from the vena saphena. Depending on the expected half-life additional samples were taken at later time points (e.g. 48 h, 72 h).
# For pharmacokinetics after intragastral administration test compounds were given intragastral to fasted non-rodents (e.g. dogs). Blood samples were taken e.g. at 5 min, 15 min, 30 min, 45 min, 1 h, 2 h, 4 h, 6 h, 8 h and 24 h after dosing. Depending on the expected half-life additional samples were taken at later time points (e.g. 48 h, 72 h). Blood was collected into Lithium-Heparin tubes (Monovetten®, Sarstedt) and centrifuged for 15 min at 3000 rpm. […] PK parameters were calculated by non-compartmental analysis using a PK calculation software. […]
# PK parameters calculated from concentration time profiles after i.g.: Cmax: Maximal plasma concentration (in mg/L); Cmaxnorm: Cmax divided by the administered dose (in kg/L); Tmax: Time point at which Cmax was observed (in h). […]
# [2] = In vitro metabolic stability in cryopreserved human hepatocytes; format: in vitro ADME; details: 1 μM test compound
# Procedure: Cryopreserved Hepatocytes (e.g. purchased from Celsis InVitroTechnologies) were briefly thawed, washed with 45 mL pre-warmed in in vitro GRO HT medium and centrifuged for 5 min at 50×g. The cell pellet was resuspended in 5 ml of Krebs-Henseleit […] (KHB). Cell viability was determined by trypan blue exclusion.
# For the metabolic stability assay liver cells were distributed in WME containing 5% FCS to glass vials at a density of 1.0×10^6 vital cells/ml. The test compound was added to a final concentration of 1 μM. During incubation, the hepatocyte suspensions were continuously shaken at 580 rpm and aliquots were taken at 2, 8, 16, 30, 45 and 90 min, to which equal volumes of cold methanol were immediately added. Samples were frozen at −20° C. over night, after subsequently centrifuged for 15 minutes at 3000 rpm and the supernatant was analyzed with an Agilent 1290 HPLC-system with LCMS/MS detection.
# The half-life of a test compound was determined from the concentration-time plot. From the half-life the intrinsic clearances were calculated. Together with the additional parameters liver blood flow, amount of liver cells in vivo and in vitro. The hepatic in vivo blood clearance (CL) and the maximal oral bioavailability (Fmax) was calculated.
# PDE3A-CRISPR A2058 cells = assay: Dose response in A2058 cells with CRISPR knockout of PDE3A; format: cell-based, human
# Procedure: (§1) The antiproliferative activity of the compounds of the general formula (I) was examined in vitro in human cancer cells. For this purpose, 1000 cells, including HuT78 cells, 500 HeLa cells, or 500 A2058 cells, were plated in 384-well plates with appropriate growth medium and incubated at 37° C. overnight. After 24 h, the cells on the test plate were treated with the compounds of the general formula (I) as and incubated at 37° C. for 72 h. The compounds were added to the cells by means of an HP D300 digital dispenser in a 10 (or more)—step dilution series. As control, the cells were treated with vehicle (DMSO at 0.3% final concentration). After 72 h, the cells were treated with 20 µl/well of 50% CTG solution in PBS (Promega Cell Titer Glo (catalogue # G755B and G756B)) and incubated at room temperature for 10 min, and luminescence was measured by means of a VICTOR V (Perkin Elmer), in order to determine cell viability at the end of treatment. The percentage effect on cell growth and the IC50 derived therefrom were determined for each test substance using the values from untreated wells (=percent viability). The IC50 values were calculated using a 4-parameter fit.
# CRISPR target sites were identified using the MIT CRISPR Design Tool (online MIT CRISPR design portal). For cloning of sgRNAs, forward and reverse oligonucleotides (oligos) were annealed, phosphorylated and ligated into BsmBI-digested pXPR_BRD001. Oligo sequences are as follows:
# To produce lentivirus, 293T cells were co-transfected with pXPR_BRD001, psPAX2 and pMD2.G using calcium phosphate. Infected A2058 and HeLa cells were selected with 2 μg/ml of puromycin.
# [3] = tested on: xenograft models of human tumors; assay: Murine xenotransplantation models of human cancer (overall); format: in vivo, mice; details: monotherapy, p.o., different xenograft models
# Procedure: (§2) The anti-tumor activity of Compound 1 was examined in murine xenotransplantation models of human cancer. For this purpose, mice were implanted subcutaneously with tumor cells. At a mean tumor size of 20-40 mm^2 animals were randomized into treatment and control groups (at least n=10 animals/group) and treatment started with vehicle only or Compound 1 (formulation: 90% PEG400/10% Ethanol; application route: per os (“p.o.”), orally). The oral application volume was 10 ml/kg. In the case of twice daily treatments, the time interval between two applications per day was 6-7h. The tumor size and the body weight were determined at least weekly. The tumor area was detected by means of an electronic caliper [length (mm)×width (mm)]. The experiment was ended when the tumors of the vehicle control reached the pre-determined ethical endpoint based on German and European animal welfare regulations. In vivo anti-tumor efficacy is presented as T/C ratio at study end (Treatment/Control; mean tumor area or weight of treatment group/mean tumor area or weight of control group) in Table 7. A compound having a T/C below 0.5 is defined as active (i.e., effective). Statistical analysis was assessed using SigmaStat software. A one-way analysis of variance was performed and differences to the control were compared by a pair-wise comparison procedure (Dunn's method).
# HeLa cells = assay: HeLa cell viability assay (compound sensitivity testing); format: cell-based; details: Homo sapiens, incubated for 48 hours
# Procedure: 1000 HeLa (DMEM), cells were plated in a 384-well plate in 40 μl of corresponding growth media supplemented with 10% Fetal Bovine Serum. 24 hours after plating, indicated compounds were added at indicated concentrations and incubated for 48 hours. Cell viability was assessed as described in Compound library screening in NCI-H1734 and A549 cell lines.
# A549 = assay: Cell proliferation measurement (Cell Titer Glo, 72 h); format: cell-based; details: Homo sapiens, A549, Lung adenocarcinoma, printed as (inactive)
# Procedure: as §1
# SKMEL3 = assay: as above; format: cell-based; details: Homo sapiens, SK-MEL3, SKMEL3, Melanoma
# Procedure: as §1
# IGR37 = assay: as above; format: cell-based; details: Homo sapiens, IGR-37, IGR37, Melanoma
# Procedure: as §1
# HeLa = assay: as above; format: cell-based; details: Homo sapiens, Cervical Cancer
# Procedure: as §1
# human full length PDE3A = target: T1, human full length PDE3A (Homo sapiens, UniProt Q14432); assay: PDE3A enzyme inhibition, 3H-cAMP scintillation proximity assay; format: biochemical
# T1 construct: Sf9 cells overexpressing human full length PDE3A; purchased SB Drug Discovery, UK; host or cells: Sf9 insect cells (cell extract, not purified)
# T1 sequence (Q14432 whole entry): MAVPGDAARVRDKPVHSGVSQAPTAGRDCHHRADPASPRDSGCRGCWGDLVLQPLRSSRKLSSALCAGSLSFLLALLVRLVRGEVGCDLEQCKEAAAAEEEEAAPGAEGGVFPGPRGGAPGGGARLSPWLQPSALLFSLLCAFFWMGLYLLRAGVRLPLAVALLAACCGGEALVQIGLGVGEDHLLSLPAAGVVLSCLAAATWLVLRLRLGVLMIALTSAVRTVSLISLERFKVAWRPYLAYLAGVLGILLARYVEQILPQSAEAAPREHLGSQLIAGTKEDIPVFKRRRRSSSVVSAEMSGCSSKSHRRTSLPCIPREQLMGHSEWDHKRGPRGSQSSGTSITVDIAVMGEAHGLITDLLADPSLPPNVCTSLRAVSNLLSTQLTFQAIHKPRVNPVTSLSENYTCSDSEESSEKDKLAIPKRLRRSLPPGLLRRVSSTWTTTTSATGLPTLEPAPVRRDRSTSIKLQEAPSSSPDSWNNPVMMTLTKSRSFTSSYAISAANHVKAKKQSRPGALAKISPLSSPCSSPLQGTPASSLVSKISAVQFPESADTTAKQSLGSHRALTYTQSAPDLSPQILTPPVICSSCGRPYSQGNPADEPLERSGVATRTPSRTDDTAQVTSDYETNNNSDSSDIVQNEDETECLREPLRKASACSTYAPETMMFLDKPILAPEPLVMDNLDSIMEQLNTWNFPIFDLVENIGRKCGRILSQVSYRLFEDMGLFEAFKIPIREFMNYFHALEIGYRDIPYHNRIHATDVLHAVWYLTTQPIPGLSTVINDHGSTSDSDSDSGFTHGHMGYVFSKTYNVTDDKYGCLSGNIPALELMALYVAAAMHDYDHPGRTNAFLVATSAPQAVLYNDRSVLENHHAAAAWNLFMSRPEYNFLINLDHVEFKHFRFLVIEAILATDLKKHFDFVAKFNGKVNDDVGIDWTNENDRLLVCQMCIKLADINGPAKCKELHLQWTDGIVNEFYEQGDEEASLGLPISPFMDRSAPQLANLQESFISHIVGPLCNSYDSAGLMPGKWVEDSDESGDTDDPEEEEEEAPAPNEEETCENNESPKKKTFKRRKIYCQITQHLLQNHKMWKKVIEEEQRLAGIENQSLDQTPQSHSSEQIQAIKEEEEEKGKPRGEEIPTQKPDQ
# Procedure: (§3) The commercially available ^3H-cAMP Scintillation Proximity Assay (SPA, Perkin Elmer) system was used for enzyme inhibition studies. For the determination of the in vitro effect of test substances on the PDE3A reactions 2 μl of the respective test compound solution in DMSO (serial dilutions) were placed in wells of microtiter plates (Isoplate-96/200W; Perkin Elmer). 50 μl of a dilution of PDE3A cell extract from Sf9 cells overexpressing human full length PDE3A (SB Drug Discovery, UK) in buffer A (50 mM Tris/HCl pH 7.5, 8.3 mM MgCl2, 1.7 mM EDTA, 0.2% BSA) was added. The dilution of the PDE3A cell extract was chosen such that the reaction kinetics was linear and less than 70% of the substrate was consumed (typical dilution 1:5000). The reaction was started by addition of 50 μl (0.025 μCi) of 1:2000 in buffer A w/o BSA diluted substrate [8-^3H] adenosine 3′, 5′-cyclic phosphate (1 μCi/μl; Perkin Elmer). After incubation at room temperature for 60 min, the reaction was stopped by addition of 25 μl of a suspension containing 18 mg/ml yttrium scintillation proximity beads (Perkin Elmer) in water. The microtiter plates were sealed and measured in a Microbeta scintillation counter (PerkinElmer Wallac). IC50 values were determined from sigmoidal curves by plotting percentage PDE3A activity vs log compound concentration.
# IGR-37 xenograft = assay: In vivo xenotransplantation model; set-up: species or system mice; details: IGR-37, Melanoma, 40 mg/kg 2QD p.o.
# Procedure: as §2
# HeLa xenograft = assay: In vivo xenotransplantation model; set-up: species or system mice; details: Cervical cancer, 10 mg/kg 2QD p.o., study end
# Procedure: as §2
# SK-MEL3 xenograft = assay: In vivo xenotransplantation model; set-up: species or system mice; details: SK-MEL3, Melanoma, 40 mg/kg 2QD p.o.
# Procedure: as §2
# A2058 xenograft = assay: In vivo xenotransplantation model; set-up: species or system mice; details: A2058, Melanoma, 40 mg/kg 2QD p.o.
# Procedure: as §2
# human full length PDE3B = target: T2, human full length PDE3B (Homo sapiens, UniProt Q13370); assay: PDE3B enzyme inhibition, 3H-cAMP scintillation proximity assay; format: biochemical
# T2 construct: Sf9 cells overexpressing human full length PDE3B; purchased SB Drug Discovery, UK; host or cells: Sf9 insect cells (cell extract, not purified)
# T2 sequence (Q13370 whole entry): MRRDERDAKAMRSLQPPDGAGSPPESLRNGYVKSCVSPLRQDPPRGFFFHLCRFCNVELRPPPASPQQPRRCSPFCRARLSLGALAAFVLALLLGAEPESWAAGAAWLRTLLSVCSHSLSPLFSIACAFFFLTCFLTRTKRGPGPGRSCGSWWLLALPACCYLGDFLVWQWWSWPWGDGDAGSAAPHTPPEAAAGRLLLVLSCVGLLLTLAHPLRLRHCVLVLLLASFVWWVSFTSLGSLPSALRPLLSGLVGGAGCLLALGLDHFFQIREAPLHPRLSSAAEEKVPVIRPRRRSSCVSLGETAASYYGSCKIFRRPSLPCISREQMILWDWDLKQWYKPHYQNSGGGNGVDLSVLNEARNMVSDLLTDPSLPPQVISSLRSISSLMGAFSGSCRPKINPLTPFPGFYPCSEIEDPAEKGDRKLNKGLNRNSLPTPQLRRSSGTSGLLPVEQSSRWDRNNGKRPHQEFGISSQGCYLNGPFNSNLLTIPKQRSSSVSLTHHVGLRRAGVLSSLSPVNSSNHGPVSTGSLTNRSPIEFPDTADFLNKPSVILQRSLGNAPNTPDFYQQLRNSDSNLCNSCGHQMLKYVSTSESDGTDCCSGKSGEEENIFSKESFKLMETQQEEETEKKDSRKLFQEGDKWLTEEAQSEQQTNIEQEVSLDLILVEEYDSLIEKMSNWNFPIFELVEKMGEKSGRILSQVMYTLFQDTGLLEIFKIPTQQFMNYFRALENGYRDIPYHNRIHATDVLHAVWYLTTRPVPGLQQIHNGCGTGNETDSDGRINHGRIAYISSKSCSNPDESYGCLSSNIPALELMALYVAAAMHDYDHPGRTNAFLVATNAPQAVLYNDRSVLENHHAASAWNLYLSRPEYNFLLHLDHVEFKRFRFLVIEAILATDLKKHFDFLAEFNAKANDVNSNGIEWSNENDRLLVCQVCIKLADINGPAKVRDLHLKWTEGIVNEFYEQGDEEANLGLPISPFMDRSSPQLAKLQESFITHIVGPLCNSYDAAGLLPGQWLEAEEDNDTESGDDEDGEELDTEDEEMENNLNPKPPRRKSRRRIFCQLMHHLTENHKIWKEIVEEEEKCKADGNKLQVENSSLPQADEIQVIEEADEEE
# Procedure: as §3, with “PDE3B” for “PDE3A”, “1:6000).” for “1:5000).”
clearance [1],predicted maximal oral bioavailability (Fmax) [2],EC50 (HeLa cells),IC50 (A549),IC50 (SKMEL3),IC50 (HeLa),IC50 (human full length PDE3A),IC50 (human full length PDE3B),SMILES,response to cytotoxic effects (PDE3A-CRISPR A2058 cells; ectopic expression of GFP),response to cytotoxic effects (PDE3A-CRISPR A2058 cells; ectopic expression of PDE3B),"response to cytotoxic effects (PDE3A-CRISPR A2058 cells; ectopic expression of PDE3B, listed as compound 1)",anti-tumor efficacy [3],IC50 (IGR37),T/C (mean final tumor weight of treatment versus control) (IGR-37 xenograft),T/C (mean tumor area of treatment versus control) (HeLa xenograft),T/C (mean final tumor weight of treatment versus control) (SK-MEL3 xenograft),T/C (mean final tumor weight of treatment versus control) (A2058 xenograft)
28.3 mL/min/kg,49%,,,,,,,"C[C@@H]1CC(=O)NN=C1c1ccc(N2CCOCC2)c(F)c1 [(5R)-6-[3-fluoro-4-(morpholin-4-yl)phenyl]-5-methyl-4,5-dihydropyridazin-3(2H)-one, reference compound]",,,,,,,,,
12.8 mL/min/kg,66%,1.1 nM,> 600 nM,1.01 nM,0.852 nM,5 nM and 4.6 nM,,"C[C@@H]1CC(=O)NN=C1c1cc(F)c(N2CCOCC2)c(F)c1 [Compound 1, (5R)-6-[3,5-difluoro-4-(morpholin-4-yl)phenyl]-5-methyl-4,5-dihydropyridazin-3(2H)-one]",lack of response,re-sensitized,restores sensitivity,potent anti-tumor efficacy,2.19 nM,0.11b)*,0.01a)*,0.05b)*,0.07b)*
,,1.9 nM,,,,4 nM,11 nM,"C[C@@H]1CC(=O)NN=C1c1cc(Cl)c(N2CCOCC2)c(Cl)c1 [Compound 2, 6-[3,5-dichloro-4-(morpholin-4-yl)phenyl]-5-methyl-4,5-dihydropyridazin-3(2H)-one]",,,,,,,,,
